Values quoted from earlier work, collected in patent US8623825B2, “Edible fat composition for enhancing bone strength” (Enzymotec Ltd., priority 2007, dated 2014).

How the values were obtained:
[1] = system: bone of post-menopausal women
vertebral bone = conditions: independent of bone mineral density

F [fluoride]
Bone mass ([1]; fluoride treatment): increased bone mass | Skeletal fragility ([1]; particularly non-vertebral bones): increased skeletal fragility

O=C(c1ccc(OCCN2CCCCC2)cc1)c1c(-c2ccc(O)cc2)sc2cc(O)ccc12 [raloxifene]
Vertebral bone strength (vertebral bone): significantly improved
